Measurements reported in the NIST ThermoML archive (doi:10.1016/j.jct.2005.07.009).

Legend:
[1] = xn = mol fraction of the nth substance listed; settings: 298.15 K, 101 kPa, Liquid, Vibrating tube method
[2] = excess molar enthalpy (molar enthalpy of mixing); xn = mol fraction of the nth substance listed; settings: 298.15 K, 101 kPa, Liquid

BrCCCBr [1,3-dibromopropane] + CCCC(=O)OCC
Settings | excess molar enthalpy [kcal/mol] | mass density [kg/m3]
[1], x2 = 0.0436 | – | 1908.9
[1], x2 = 0.0835 | – | 1854.01
[1], x2 = 0.1381 | – | 1781.05
[1], x2 = 0.1859 | – | 1719.07
[1], x2 = 0.2926 | – | 1586.65
[1], x2 = 0.4637 | – | 1389.88
[1], x2 = 0.5238 | – | 1324.96
[1], x2 = 0.6494 | – | 1195.57
[1], x2 = 0.7131 | – | 1133.02
[1], x2 = 0.7811 | – | 1068.34
[1], x2 = 0.852 | – | 1003.1
[1], x2 = 0.9215 | – | 941.15
[2], x2 = 0.0406 | 0.00528 | –
[2], x2 = 0.0875 | 0.0082 | –
[2], x2 = 0.142 | 0.00906 | –
[2], x2 = 0.1949 | 0.00832 | –
[2], x2 = 0.2497 | 0.00576 | –
[2], x2 = 0.3027 | 0.00174 | –
[2], x2 = 0.3525 | -0.00265 | –
[2], x2 = 0.4005 | -0.00731 | –
[2], x2 = 0.4399 | -0.0109 | –
[2], x2 = 0.4453 | -0.0114 | –
[2], x2 = 0.4914 | -0.0149 | –
[2], x2 = 0.5444 | -0.0171 | –
[2], x2 = 0.6028 | -0.0185 | –
[2], x2 = 0.6668 | -0.019 | –
[2], x2 = 0.7369 | -0.0185 | –
[2], x2 = 0.8067 | -0.0161 | –
[2], x2 = 0.8771 | -0.0119 | –

BrCCCBr [1,3-dibromopropane] + CCCCC(=O)OCC
Settings | excess molar enthalpy [kcal/mol] | mass density [kg/m3]
[1], x2 = 0.0408 | – | 1905.88
[1], x2 = 0.0868 | – | 1836.07
[1], x2 = 0.1296 | – | 1773.38
[1], x2 = 0.177 | – | 1707.11
[1], x2 = 0.273 | – | 1579.99
[1], x2 = 0.325 | – | 1515.4
[1], x2 = 0.3803 | – | 1449.57
[1], x2 = 0.437 | – | 1385.12
[1], x2 = 0.5197 | – | 1296
[1], x2 = 0.6902 | – | 1128.6
[1], x2 = 0.7601 | – | 1065.64
[1], x2 = 0.8344 | – | 1001.96
[1], x2 = 0.9163 | – | 935.2
[2], x2 = 0.0175 | 0.00339 | –
[2], x2 = 0.0382 | 0.00617 | –
[2], x2 = 0.0611 | 0.00844 | –
[2], x2 = 0.0911 | 0.00906 | –
[2], x2 = 0.1259 | 0.00923 | –
[2], x2 = 0.1645 | 0.00882 | –
[2], x2 = 0.205 | 0.00784 | –
[2], x2 = 0.247 | 0.00564 | –
[2], x2 = 0.2878 | 0.00201 | –
[2], x2 = 0.3293 | -0.00241 | –
[2], x2 = 0.3706 | -0.00626 | –
[2], x2 = 0.4062 | -0.00927 | –
[2], x2 = 0.4471 | -0.0122 | –
[2], x2 = 0.4985 | -0.0154 | –
[2], x2 = 0.5544 | -0.017 | –
[2], x2 = 0.6183 | -0.0182 | –
[2], x2 = 0.6862 | -0.0188 | –
[2], x2 = 0.7558 | -0.0182 | –
[2], x2 = 0.8251 | -0.0156 | –
[2], x2 = 0.8833 | -0.0117 | –
[2], x2 = 0.946 | -0.00602 | –

BrCCCBr [1,3-dibromopropane] + CCOC(=O)CC
Settings | excess molar enthalpy [kcal/mol] | mass density [kg/m3]
[1], x2 = 0.1075 | – | 1839.36
[1], x2 = 0.161 | – | 1775.98
[1], x2 = 0.2159 | – | 1711.67
[1], x2 = 0.2732 | – | 1645.81
[1], x2 = 0.3842 | – | 1520.67
[1], x2 = 0.4468 | – | 1451.66
[1], x2 = 0.5011 | – | 1392.66
[1], x2 = 0.5622 | – | 1327.28
[1], x2 = 0.6827 | – | 1201.05
[1], x2 = 0.7443 | – | 1137.95
[1], x2 = 0.8686 | – | 1013.23
[2], x2 = 0.0471 | 0.00559 | –
[2], x2 = 0.1006 | 0.0087 | –
[2], x2 = 0.1564 | 0.00918 | –
[2], x2 = 0.2139 | 0.00786 | –
[2], x2 = 0.2707 | 0.00387 | –
[2], x2 = 0.3244 | -0.000813 | –
[2], x2 = 0.3765 | -0.00605 | –
[2], x2 = 0.4201 | -0.0111 | –
[2], x2 = 0.4478 | -0.0156 | –
[2], x2 = 0.4591 | -0.0195 | –
[2], x2 = 0.493 | -0.0144 | –
[2], x2 = 0.4983 | -0.0205 | –
[2], x2 = 0.5563 | -0.0245 | –
[2], x2 = 0.6207 | -0.026 | –
[2], x2 = 0.6908 | -0.0251 | –
[2], x2 = 0.7671 | -0.0219 | –
[2], x2 = 0.8476 | -0.0164 | –
[2], x2 = 0.9262 | -0.00906 | –

BrCCCBr [1,3-dibromopropane] + CCOC(C)=O
Settings | excess molar enthalpy [kcal/mol] | mass density [kg/m3]
[1], x2 = 0.057 | – | 1910.48
[1], x2 = 0.1189 | – | 1845.49
[1], x2 = 0.1785 | – | 1782.59
[1], x2 = 0.2647 | – | 1691.31
[1], x2 = 0.3199 | – | 1632.54
[1], x2 = 0.4187 | – | 1526.9
[1], x2 = 0.466 | – | 1476.19
[1], x2 = 0.5091 | – | 1429.89
[1], x2 = 0.6323 | – | 1296.79
[1], x2 = 0.6746 | – | 1250.93
[1], x2 = 0.7715 | – | 1145.6
[1], x2 = 0.8309 | – | 1080.67
[1], x2 = 0.8892 | – | 1016.69
[1], x2 = 0.9615 | – | 937.08
[2], x2 = 0.0601 | 0.0131 | –
[2], x2 = 0.127 | 0.0223 | –
[2], x2 = 0.195 | 0.0295 | –
[2], x2 = 0.2607 | 0.0333 | –
[2], x2 = 0.3258 | 0.0342 | –
[2], x2 = 0.3855 | 0.0332 | –
[2], x2 = 0.4407 | 0.0304 | –
[2], x2 = 0.4829 | 0.0271 | –
[2], x2 = 0.487 | 0.0269 | –
[2], x2 = 0.5298 | 0.0219 | –
[2], x2 = 0.5741 | 0.0169 | –
[2], x2 = 0.628 | 0.0109 | –
[2], x2 = 0.687 | 0.00531 | –
[2], x2 = 0.7498 | 0.000765 | –
[2], x2 = 0.8153 | -0.00174 | –
[2], x2 = 0.8813 | -0.00241 | –
[2], x2 = 0.9434 | -0.00136 | –
